We go through two molecules from patent US9101567B2, “Suppression of cancer growth and metastasis using nordihydroguaiaretic acid derivatives with 7-hydroxystaurosporine” (The Johns Hopkins University, priority 2010, dated 2015).

Test [1] has as its system LNCaP human prostate cancer cells. In words: TUNEL assay of cell death in LNCaP cells. Format: cell-based. Conditions: 24 hrs, z-DEVD-fmk 50 μM. The source says:
LNCaP human prostate cancer, DU145 human prostate cancer, PC3 human prostate cancer, MCF-7 human breast cancer, MDA-MB-231 human breast cancer, MDA-MB-468 human breast cancer, HT29 human colon cancer, K562 human myelogenous leukaemia, HepG2 human hepatoma, Hep3B human hepatoma, and LN229 human glioblastoma cancer cell lines were purchased from American Type Culture Collection (Manassas, Va.). OC24 human ascites ovarian cancer cell line was a generous gift from Dr. XXX (Johns Hopkins University, MD). LNCaP cell line was cultured in RPMI1640 medium supplemented with glucose (14 mM), pyruvate (1 mM), and fetal bovine serum (FBS) (10%). DU145 cell line was cultured in MEM supplemented with non-essential amino acids, glucose (21 mM), pyruvate (1 mM), and FBS (10%). PC3 cell line was cultured in F-12K medium supplemented with FBS (10%). MCF-7 cell line was cultured in DMEM supplemented with FBS (10%). OC24 cell line was cultured in RPMI1640 medium supplemented with FBS (10%) as suspension culture. MDA-MB-231 and 468 cell lines were cultured in Leibovitz's L15 medium supplemented with FBS (10%) under air. HT29 cell line was cultured in DMEM supplemented with glucose (25 mM) and FBS (10%). K562 cell line was cultured in RPMI1640 supplemented with FBS (10%). HepG2 and Hep3B cell lines were cultured in MEM supplemented with FBS (10%). LN229 cell line was cultured in DMEM supplemented with FBS (5%). […]

Test [2] has as its system caspase-7. Kind of test: Western blotting of caspase-7 cleavage in HepG2 cells. Format: cell-based, human. Conditions: HepG2, 17 hrs; M4N 80 μM, etoposide 20 μM, rapamycin 20 μM, UCN-01 5 μM. On the procedure:
(§1) The sample volumes were adjusted by the total protein amount. Protein assay was performed by Bio-Rad Protein Assay (Bio-Rad Laboratories, Inc. Hercules, Calif.). The samples were resolved by the standard SDS-polyacrylamide gel electrophoresis and transferred to nitrocellulose membrane (Amersham Biosciences, Bjorkgatan, Sweden). The membranes were blocked with skim milk, and incubated with primary antibodies at 4° C. overnight and then with secondary antibody conjugated with horse radish peroxidase at room temperature for 2 hrs. The signals were detected by western blot chemiluminescence reagent plus (New England Nuclear Life Science Products, Boston, Mass.).
The effect of the combination treatments on cell death and autophagy was examined in two cell lines other than LNCaP cells.

The next test concerns LNCaP tumors. In words: Nude mice orthotopically implanted with LNCaP tumors: life-span and lung metastasis. It counts as in vivo, nude (nu/nu) mice. Conditions: LNCaP tumor-bearing nude mice; lung sections, hematoxylin and eosin.
Test [3] deals with caspase-7. In words: Enzymatic assay for caspase-7 in extracts of treated LNCaP cells. Format: cell-based, human. Conditions: extracts of LNCaP cells treated for 13 hrs. The procedure:
The enzymatic assay specific for caspase-7 was performed using a CaspSELECT caspase-7 immunoassay kit (BioVision, Mountain View, Calif.). This assay is based on the […] assay with DEVD-afc. Since DEVD-afc can be a substrate for either caspase-3 or 7, only caspase-7 is selected from cell extracts by anti-caspase-7 antibody which is coated on microtiter plates. Briefly the microtiter plates were coated with anti-caspase-7 antibody overnight at 4 C and blocked with a blocking solution for 30 minutes at room temperature. The cell extracts were applied to the microtiter plates. After washing the microtiter plates, the substrate […] was added to the plates and incubated for about three hours. The fluorescence was measured by a microtiter plate fluorescence reader Infinite 200 (Tecan, Switzerland).
(§2) The efficacy of the combination treatment of M4N with three anticancer drugs, etoposide, rapamycin, and UCN-01 to induce cell death was examined for LNCaP human prostate cancer cells with TUNEL assay. We chose these anticancer drugs trying to diversify the mechanisms in which the anticancer drugs work (43-45). […] Additionally the effect of caspase-3 and 7 inhibitor, zDEVD-fmk on the cell death induced by the combination treatment was examined (FIG. 1E).

In the next test the test system is caspase-3 and 9. Kind of test: Western blotting of cleaved caspase-3 and 9 in LNCaP cells. Format: cell-based, human. Particulars: 17 hrs, M4N 80 μM, etoposide 10 μM, rapamycin 10 μM, UCN-01 2 μM. The procedure: as §1, §2
(Immunoblotting shows a protein as a band on a membrane.)

Protocol for LNCaP tumors: T-cell deficient male nude mice (nu/nu) were obtained from Charles River Laboratories (Wilmington, Mass.). […] For drug combinations (M4N/etoposide, M4N/rapamycin, and M4N/UCN-01), etoposide, rapamycin, or UCN-01 powder was further added to M4N in CPE 25/30 to make a final concentration of M4N (10 mg/ml) respectively with etoposide (4 mg/ml), rapamycin (3.75 mg/ml), or UCN-01 (884 g/ml) in CPE 25/30 formulation. These drugs were intravenously injected into the tail vein of mice at the daily dose of 0.1 ml per mouse. Therefore dosages of each injection were 1 mg/shot (for M4N), 0.4 mg/shot (for etoposide), 0.375 mg/shot (for rapamycin), and 88.4 μg/shot (for UCN-01). The drug injections were performed once every day; beginning at day 3 until day 31 after tumor inoculation for the combination treatment with either etoposide or rapamycin and until day 25 after tumor inoculation for the combination treatment with UCN-01. After this the drugs were injected once a week for etoposide/rapamycin combination treatment and once every three days until day 35 for UCN-01 combination treatment.
LNCaP cells growing subconfluently were collected into the tissue culture medium without fetal bovine serum and antibiotics. The cell concentration was adjusted by the same medium. […]

Regarding `COC(=O)CC[C@H](NC(=O)[C@H](CC(=O)OC)NC(=O)OCc1ccccc1)C(=O)N[C@H](C(=O)N[C@@H](CC(=O)OC)C(=O)CF)C(C)C` [zDEVD-fmk], the “effect on TUNEL-positive cell death induced by the combination treatments” value in test [1] is “inhibited a large portion of the cell death”.
Regarding `COc1cc([C@@H]2c3cc4c(cc3[C@@H](O[C@@H]3O[C@@H]5CO[C@@H](C)O[C@H]5[C@H](O)[C@H]3O)[C@H]3COC(=O)[C@H]23)OCO4)cc(OC)c1O` [etoposide], the caspase-7 cleavage product result in the test with caspase-7 [2] is on record as “small amount”. Further, the “mice with obvious lung metastasis (histology)” value in the test with LNCaP tumors is recorded as 3 out of 5. Also, the “caspase-7 activation (enzymatic activity)” value in the test on caspase-7 [3] is “only a small amount”. Moreover, the “expression of cleaved caspase-3 and 9” value in the test with caspase-3 and 9 is recorded as “didn't induce the cleavage”.
